Read-outs that look alike come from different tables or passages of the source.
Columns and labels:
[1] = Cytotoxicity in HepG2 cells (intracellular ATP, ATPlite, 48 h); type: cell-based, human; details: human, HepG2 cells
[2] = system: HepG2 cells; experiment: as above; type: cell-based, human; details: IC50 HepG2 divided by IC50 P. falciparum gametocytes
[3] = system: P. falciparum stage V gametocytes; experiment: Gametocytocidal ATP bioluminescence assay (single point 5 μM and 1 μM, dose-response); type: cell-based, Plasmodium falciparum; details: for Ratio IC50 HepG2/IC50 P. falciparum: IC50 HepG2 divided by IC50 P. falciparum gametocytes
[4] = system: P. falciparum asexual stages; details: TCAMS data, cited from earlier work
[5] = system: luciferase reaction (BacTiter-Glo); experiment: Interference assay (inhibition of the BacTiter-Glo luciferase reaction); type: biochemical; set-up: concentration or dose not given beside the values; details: ATP interference assay
Protocol: To discard possible false-positive results, we performed an interference assay in parallel. […] […]. The ATP solution was made by dissolving ATP powder (ATP standard from the ATPlite 1 step assay kit, reference 6016731, Perkin Elmer) in culture medium. The positive control used was the Luciferase Inhibitor I Calbiochem (Merck, 119113) at 100 μM.

[6] = system: P. falciparum stage V gametocytes; experiment: microbe, parasite or virus in culture; set-up: BacTiter-Glo ATP luminescence viability of purified stage V gametocytes in 384-well plates, per cent inhibition versus DMSO; details: Plasmodium falciparum, 48 h, read-out: % Inhibition
[7] = HepG2, 48 h exposure, intracellular ATP, read-out: IC50 (μM) Cytotoxicity HepG2
[8] = IC50 per ratio column head, unit inferred, read-out: Cytotoxicity in HepG2
[9] = Plasmodium falciparum, P. falciparum gametocytes, average, read-out: IC50 Pf Gametocytes average, IC50 (µM) average
[10] = P. falciparum asexual stages, read-out: IC50 (µM) Pf asexual stages
[11] = asexual stages, read-out: IC50 asexual
[12] = Plasmodium falciparum, sexual stages (gametocytes), dose-response, read-out: IC50 sexual
[13] = sexual stages (gametocytes), dose-response, read-out: IC50 sexual

Row | % Control luminiscence [5] [%] | SMILES | IC50 at 48 h [1, 7] [µM] | IC50 at 48 h [1, 8] [µM] | Ratio IC50 HepG2/IC50 P. falciparum [2] | Ratio IC50 HepG2/IC50 P. falciparum [3] | IC50 [3, 9] [µM] | IC50 [4, 10] [µM] | IC50 [4, 11] [µM] | IC50 [3, 12] [µM] | IC50 ([3]; Plasmodium falciparum, gametocytes (S9 Table), read-out: pIC50game (converted)) [µM] | inhibition at 5 µM ([3]; Plasmodium falciparum, gametocytes, primary screen at 5 μM (S9 Table, CSA analogs)) [%] | IC50 [3, 13] [µM] | inhibition at 5 µM [6] [%]
1 | 100 | c1cc(CNCCN2CCNCC2)cc(-c2cccc(-c3nc4ccccc4[nH]3)c2)c1 [TCMDC-132859] | 19 | 19.3 | 27 | 27 | 0.71 | 0.96 | 0.959 |  |  |  |  | 
2 | 100 | COc1cc2nc(N3CCN(c4nc(N)c5cc(OC)c(OC)cc5n4)CC3)nc(N)c2cc1OC [TCMDC-123865] |  | > 25 | >96 | >96 | 0.26 | 0.15 | 0.146 |  |  |  |  | 
3 | 100 | COc1ccc(CNC2Cc3ccccc3C2)cc1-c1ccc(OC)c(S(=O)(=O)NCCN2CCCC2)c1 [TCMDC-132251] |  | 16.6 | 15 | 15 | 1.14 |  | 0.773 |  |  |  |  | 
4 | 100 | c1cc(CN2CCC(CCN3CCCCC3)CC2)cc(-c2cccc(-c3nc4ccccc4[nH]3)c2)c1 [TCMDC-133920] | 13 | 13.1 | 45 | 45 | 0.29 |  | 0.14 | 0.293 |  |  |  | 
5 | 100 | Fc1ccc2[nH]c(-c3ccc(-c4ccc(CNCCN5CCNCC5)cc4)s3)nc2c1 [TCMDC-132869] |  | > 25 | >47 | >47 | 0.53 | 0.78 | 0.779 |  | 0.53 | 101 |  | 
6 | 100 | CCCCCCCN1CC[C@@H](CCCc2ccnc3ccc(OCCCCNC(N)=NO)cc23)[C@@H](CC)C1 [TCMDC-139839] |  | 17.2 | 36 | 36 | 0.47 |  | 0.952 |  |  |  | 0.473 | 
7 | 100 | COc1ccc2nc3cc(Cl)ccc3c(NCCN3CCN(C)CC3)c2c1 [TCMDC-137476] | 19 | 19.3 | 10 | 10 | 1.88 | 0.12 | 0.124 | 1.88 |  |  |  | 
8 | 100 | C/C=C/C=C/C1=NCCc2cc(OCCC)ccc21 [TCMDC-137442] |  | 19 | 25 | 25 | 0.75 | 0.91 | 0.914 | 0.747 |  |  |  | 
9 | 100 | CCN(CC)CCN(Cc1ccc(-c2ccc(C(F)(F)F)cc2)cc1)C(=O)Cn1cc(Cc2cnn(C)c2)c(=O)nc1/C=C/c1cccc(F)c1F [TCMDC-140964] |  | 14.4 | 83 | 83 | 0.17 |  | 0.957 |  |  |  | 0.173 | 
10 | 96 | CCN(CC)CCCOC(=O)c1ccc2c(c1)-c1ccc(C(=O)OCCCN(CC)CC)c3cccc-2c13 [TCMDC-125491] |  | 20 | 140 | 140 | 0.14 |  | 0.933 |  |  |  | 0.143 | 
11 | 100 | Cc1ccc(-n2c(C)nc3c(Nc4ccc(-c5ccncc5)cc4)ncnc32)c(C)c1 [TCMDC-136289] |  | > 25 | >47 | >47 | 0.53 |  | 0.101 |  |  |  | 0.533 | 
12 | 100 | CCn1ncc2c(NC3CCOCC3)c(CNC(=O)c3ccnn3C)c(C)nc21 [TCMDC-136560] |  | > 25 | >15 | >15 | 1.64 | 0.53 | 0.533 | 1.64 |  |  |  | 
13 | 100 | COc1cc(NC(=O)c2sc(-c3ccc(Cl)cc3)cc2NC(=O)c2cccnc2)ccc1OCCN1CCCC1 [TCMDC-135397] |  | > 25 | >41 | >41 | 0.61 |  | 0.38 |  |  |  | 0.613 | 
14 | 100 | Cc1cc(Nc2ccncc2)n2nc(C)c(-c3ccc(Cl)cc3)c2n1 [TCMDC-124478] | > 25 | > 50 | >55 | >55 | 0.91 | 0.16 | 0.157 | 0.913 |  |  |  | 
15 | 100 | O=[N+]([O-])c1ccc(C=NNc2nc(Nc3ccccc3)nc(Nc3ccccc3)n2)o1 [TCMDC-125802] |  | 14.8 | 11 | 11 | 1.31 |  | 0.837 |  |  |  | 1.31 | 
16 | 100 | COc1ccc(COc2cc(NCCCN)nc3ccccc23)cc1 [TCMDC-139286] | 14 | 14 | 25 | 25 | 0.56 | 1.28 | 1.28 |  |  |  |  | 
17 | 100 | COc1ccc(NC(=O)C2c3ccccc3C(=O)N(CC(C)C)C2c2cccs2)cc1OC (stereo not shown) [TCMDC-125289] |  | > 25 | >58 | >58 | 0.43 | 0.2 | 0.203 | 0.427 |  |  |  | 
18 | 100 | COc1cc2nc(N3CCC(CCCC4CCNCC4)CC3)nc(NCc3ccccn3)c2cc1OC [TCMDC-138494] |  | 10.6 | 26 | 26 | 0.4 |  | 0.757 |  |  |  |  | 
19 | 100 | COc1ccc2nc3cc(Cl)ccc3c(NCCCCNc3c4ccc(Cl)cc4nc4ccc(OC)cc34)c2c1 [TCMDC-138218] |  | 14.5 | 72 | 72 | 0.2 |  | 0.16 |  |  |  |  | 
20 | 100 | CC(C)CNCc1cccc(-c2ccc(CN(CCCN3CCN(C)CC3)C(=O)CCC3CCCC3)cc2)c1 [TCMDC-140558] |  | > 25 | >36 | >36 | 0.7 |  | 0.877 |  |  |  |  | 
21 | 100 | COc1cccc(CC(=O)N2CCC(n3c(C)nc4ccc(C)cc43)CC2)c1 [TCMDC-124791] |  | > 25 | >53 | >53 | 0.47 | 0.11 | 0.114 |  |  |  |  | 
22 | 99 | COc1ccc(CNCc2ccc(F)cc2)cc1-c1ccc(OC)c(S(=O)(=O)NCCN2CCCC2)c1 [TCMDC-132295] |  | 11.4 | 16 | 16 | 0.72 |  | 0.786 |  |  |  | 0.717 | 
23 | 100 | c1ccc2c(NCCCCCCNc3ccnc4ccccc34)ccnc2c1 [TCMDC-137913] |  | 16.4 | 17 | 17 | 0.96 |  | 0.191 |  |  |  | 0.963 | 
24 | 100 | Cn1nc(C(F)(F)F)c(-c2ccc(Br)cc2)c1NC(=O)Cc1ccccc1F [TCMDC-123792] |  | > 25 | >14 | >14 | 1.79 | 0.16 | 0.157 | 1.79 |  |  |  | 

Row | SMILES | % Control luminiscence [5] [%] | IC50 at 48 h [1, 7] [µM] | IC50 at 48 h [1, 8] [µM] | Ratio IC50 HepG2/IC50 P. falciparum [2] | Ratio IC50 HepG2/IC50 P. falciparum [3] | IC50 [3, 9] [µM] | IC50 [4, 10] [µM] | IC50 [4, 11] [µM] | IC50 [3, 12] [µM] | IC50 ([3]; Plasmodium falciparum, gametocytes (S9 Table), read-out: pIC50game (converted)) [µM] | inhibition at 5 µM ([3]; Plasmodium falciparum, gametocytes, primary screen at 5 μM (S9 Table, CSA analogs)) [%] | IC50 [3, 13] [µM] | inhibition at 5 µM [6] [%]
25 | O=c1c(Br)ccccc1Br [TCMDC-142246] | 100 | 13 | 12.6 | 61 | 61 | 0.21 | 0.79 | 0.795 | 0.207 |  |  |  | 103
